Biological target: GluA1o-γ8 (Homo sapiens (Human), UniProt P42261+Q8WXS5)
Experiment: Calcium flux assay (FLIPR), inhibition of TARP γ8 dependent AMPA receptor activity
Assay type: cell-based
Settings: HEK293 cells stably expressing GRIA1o-CACNG8 fusion construct; calcium flux following 15 μM glutamate; negative log of IC50 in molar
Source text: This assay was used to test compounds for their ability to inhibit TARP γ8 dependent AMPA receptor activity. The AMPA receptor is a non-selective cation channel activated by glutamate. Ionotropic glutamate receptors normally desensitize too rapidly to allow detectable calcium influx in a FLIPR assay (Strange et al. (2006). “Functional characterisation of homomeric ionotropic glutamate receptors GluR1-GluR6 in a fluorescence-based high throughput screening assay.” Comb Chem High Throughput Screen 9(2): 147-158). But, this desensitization is incomplete, and a substantial steady-state current remains in the sustained presence of glutamate (Cho et al. (2007). “Two families of TARP isoforms that have distinct effects on the kinetic properties of AMPA receptors and synaptic currents.” Neuron 55(6): 890-904).
An in vitro assay was used to determine the potency of test compounds as inhibitors of the glutamate response of the channel formed by GluA1o-γ8. To ensure a 1:1 stoichiometry of GluA1o and γ8 subunits in the expressed channel, a fusion of the cDNAs for GRIA1o and CACNG8 was used. Following Shi et al (2009) “The stoichiometry of AMPA receptors and TARPs varies by neuronal cell type.” Neuron 62(5): 633-640), the C-terminus of the cDNA for GRIA1o was fused to the N-terminus of the cDNA for γ8. The linker sequence was QQQQQQQQQQEFAT. Channels expressed with this construct appear to have similar properties to channels formed by co-expression of GRIA1o with an excess of CACNG8 (Shi et al. 2009). A clonal cell line in HEK293 cells stably expressing this construct, with a geneticin selection marker, was generated for use in this assay.
Cell expressing the GRIA1o-CACNG8 fusion construct were grown in a monolayer in 96- or 384-well microtiter plates. They were washed with assay buffer (135 mM NaCl, 4 mM KCl, 3 mM CaCl2, 1 mM MgCl2, 5 mM glucose, 10 mM HEPES, pH 7.4, 300 mOs) using a Biotek EL405 plate washer. The cells were then loaded with a calcium-sensitive dye (Calcium-5 or Calcium-6, Molecular Devices) and the test compounds at a range of concentrations. Calcium flux following the addition of 15 μM glutamate was monitored using a Molecular Devices FLIPR Tetra.
The fluorescence in each well was normalized to the fluorescence of negative and positive control wells. The negative control wells had no added compounds, and the positive control wells had been incubated with 10 μM CP465022 (a non-subtype-selective AMPA receptor antagonist) (Lazzaro et al. (2002). “Functional characterization of CP-465,022, a selective, noncompetitive AMPA receptor antagonist.” Neuropharmacology 42(2): 143-153). The responses to glutamate as functions of the test compound concentrations were fitted to a four-parameter logistic function. The fitted parameter corresponding to the midpoint was taken to be the potency of inhibition of the compound. The data in Table 4 below illustrates the observed potency for the compounds described herein. pIC50 refers to the negative log of the IC50 in molar.

Chain of GluA1o-γ8 (P42261 other isoform, or with tags, fused parts or gaps): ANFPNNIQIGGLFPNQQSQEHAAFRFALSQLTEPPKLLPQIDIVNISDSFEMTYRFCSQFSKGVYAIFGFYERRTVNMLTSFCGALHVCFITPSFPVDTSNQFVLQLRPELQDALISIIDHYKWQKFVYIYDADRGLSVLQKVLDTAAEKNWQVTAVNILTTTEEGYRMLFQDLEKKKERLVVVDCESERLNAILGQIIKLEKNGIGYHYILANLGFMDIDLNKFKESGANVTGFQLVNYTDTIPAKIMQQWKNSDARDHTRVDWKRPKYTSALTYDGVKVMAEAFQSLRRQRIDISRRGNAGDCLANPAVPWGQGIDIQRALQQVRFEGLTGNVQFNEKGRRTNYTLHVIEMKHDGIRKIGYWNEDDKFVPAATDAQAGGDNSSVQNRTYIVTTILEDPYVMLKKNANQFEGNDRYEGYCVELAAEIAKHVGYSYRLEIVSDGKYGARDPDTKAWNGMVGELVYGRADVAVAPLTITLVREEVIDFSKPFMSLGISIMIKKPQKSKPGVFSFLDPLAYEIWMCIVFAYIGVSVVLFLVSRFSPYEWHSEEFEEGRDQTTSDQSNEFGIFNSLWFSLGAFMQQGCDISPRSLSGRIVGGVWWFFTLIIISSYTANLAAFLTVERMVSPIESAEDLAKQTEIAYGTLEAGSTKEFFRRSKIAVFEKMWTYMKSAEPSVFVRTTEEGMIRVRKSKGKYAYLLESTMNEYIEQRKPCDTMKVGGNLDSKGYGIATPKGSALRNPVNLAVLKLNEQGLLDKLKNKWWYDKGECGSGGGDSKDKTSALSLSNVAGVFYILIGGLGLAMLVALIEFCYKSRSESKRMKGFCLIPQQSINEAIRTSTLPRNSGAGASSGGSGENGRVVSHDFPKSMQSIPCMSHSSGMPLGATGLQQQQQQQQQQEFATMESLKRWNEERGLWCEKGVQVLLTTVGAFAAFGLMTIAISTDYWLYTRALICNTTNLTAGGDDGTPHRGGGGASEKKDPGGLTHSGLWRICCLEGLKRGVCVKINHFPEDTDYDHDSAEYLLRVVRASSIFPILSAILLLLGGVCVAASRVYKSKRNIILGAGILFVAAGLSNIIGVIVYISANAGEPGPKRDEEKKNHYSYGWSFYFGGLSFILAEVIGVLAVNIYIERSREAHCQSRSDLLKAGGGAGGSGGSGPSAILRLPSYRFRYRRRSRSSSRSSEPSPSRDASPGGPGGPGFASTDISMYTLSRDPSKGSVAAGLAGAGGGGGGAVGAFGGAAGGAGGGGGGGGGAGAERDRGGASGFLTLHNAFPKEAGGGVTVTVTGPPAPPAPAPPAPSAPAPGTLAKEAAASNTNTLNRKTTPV

pIC50	SMILES
8.9	Cc1cc(-c2c(C(F)(F)F)ncn3cc(C(F)(F)F)nc23)cc2cn[nH]c12 [Example 63, 8-(7-Methyl-1H-indazol-5-yl)-2,7-bis(trifluoromethyl)imidazo[1,2-c]pyrimidine]
9.3	CCc1cn2cnc(C(F)(F)F)c(-c3cc(Cl)c4[nH]ncc4c3)c2n1 [Example 64, 8-(7-Chloro-1H-indazol-5-yl)-2-ethyl-7-(trifluoromethyl)imidazo[1,2-c]pyrimidine]
8.8	CCc1cn2cnc(C(F)(F)F)c(-c3cc(C)c4[nH]ncc4c3)c2n1 [Example 65, 2-Ethyl-8-(7-methyl-1H-indazol-5-yl)-7-(trifluoromethyl)imidazo[1,2-c]pyrimidine]
10.0	CC(C)c1cn2cnc(C(F)(F)F)c(-c3cc(Cl)c4[nH]ncc4c3)c2n1 [Example 66, 8-(7-Chloro-1H-indazol-5-yl)-2-isopropyl-7-(trifluoromethyl)imidazo[1,2-c]pyrimidine]
9.9	FC(F)(F)c1ncn2cc(C3CC3)nc2c1-c1cc(Cl)c2[nH]ncc2c1 [Example 67, 8-(7-Chloro-1H-indazol-5-yl)-2-cyclopropyl-7-(trifluoromethyl)imidazo[1,2-c]pyrimidine]
9.6	Cc1cc(-c2c(C(F)(F)F)ncn3cc(C4CC4)nc23)cc2cn[nH]c12 [Example 68, 2-Cyclopropyl-8-(7-methyl-1H-indazol-5-yl)-7-(trifluoromethyl)imidazo[1,2-c]pyrimidine]
9.5	O=C1Cc2cc(-c3c(C(F)(F)F)ncn4cc(C5CC5)nc34)cc(Cl)c2N1 [Example 69, 7-Chloro-5-[2-cyclopropyl-7-(trifluoromethyl)imidazo[1,2-c]pyrimidin-8-yl]indolin-2-one]
5.3	O=C1Cc2cc(-c3c(C(F)(F)F)ncn4cc(C5CC5)nc34)cc(F)c2N1 [Example 70, 5-[2-Cyclopropyl-7-(trifluoromethyl)imidazo[1,2-c]pyrimidin-8-yl]-7-fluoro-indolin-2-one]
9.8	CC(C)c1ncn2cc(C(F)(F)F)nc2c1-c1cc(Cl)c2[nH]ncc2c1 [Example 71, 8-(7-Chloro-1H-indazol-5-yl)-7-isopropyl-2-(trifluoromethyl)imidazo[1,2-c]pyrimidine]
9.5	CC(C)c1ncn2cc(C(F)F)nc2c1-c1cc(Cl)c2[nH]ncc2c1 [Example 72, 8-(7-Chloro-1H-indazol-5-yl)-2-(difluoromethyl)-7-isopropyl-imidazo[1,2-c]pyrimidine]
9.1	CCc1ncn2cc(C(F)(F)F)nc2c1-c1cc(Cl)c2[nH]ncc2c1 [Example 73, 8-(7-Chloro-1H-indazol-5-yl)-7-ethyl-2-(trifluoromethyl)imidazo[1,2-c]pyrimidine]
8.7	CCc1ncn2cc(C(F)(F)F)nc2c1-c1cc(C)c2[nH]ncc2c1 [Example 74, 7-Ethyl-8-(7-methyl-1H-indazol-5-yl)-2-(trifluoromethyl)imidazo[1,2-c]pyrimidine]
8.9	CCc1ncn2cc(C(F)F)nc2c1-c1cc(Cl)c2[nH]ncc2c1 [Example 75, 8-(7-Chloro-1H-indazol-5-yl)-2-(difluoromethyl)-7-ethyl-imidazo[1,2-c]pyrimidine]
8.5	Cc1ncn2cc(C(F)(F)F)nc2c1-c1cc(Cl)c2[nH]ncc2c1 [Example 76, 8-(7-Chloro-1H-indazol-5-yl)-7-methyl-2-(trifluoromethyl)imidazo[1,2-c]pyrimidine]
9.0	FC(F)(F)c1cn2cnc(C3CC3)c(-c3cc(Cl)c4[nH]ncc4c3)c2n1 [Example 77, 8-(7-Chloro-1H-indazol-5-yl)-7-cyclopropyl-2-(trifluoromethyl)imidazo[1,2-c]pyrimidine]
8.6	FC(F)c1cn2cnc(C3CC3)c(-c3cc(Cl)c4[nH]ncc4c3)c2n1 [Example 78, 8-(7-Chloro-1H-indazol-5-yl)-7-cyclopropyl-2-(difluoromethyl)imidazo[1,2-c]pyrimidine]
8.9	Cc1nc(C2CC2)c(-c2cc(Cl)c3[nH]ncc3c2)c2nc(C(F)(F)F)cn12 [Example 79]
9.2	Cc1nc(C2CC2)c(-c2cc(Cl)c3[nH]ncc3c2)c2nc(C(F)F)cn12 [Example 80, 8-(7-Chloro-1H-indazol-5-yl)-7-cyclopropyl-2-(difluoromethyl)-5-methyl-imidazo[1,2-c]pyrimidine]
9.9	FC(F)(F)c1ncn2c(Cl)c(C3CC3)nc2c1-c1cc(Cl)c2[nH]ncc2c1 [Example 81, 3-Chloro-8-(7-chloro-1H-indazol-5-yl)-2-cyclopropyl-7-(trifluoromethyl)imidazo[1,2-c]pyrimidine]
9.5	Fc1c(C2CC2)nc2c(-c3cc(Cl)c4[nH]ncc4c3)c(C(F)(F)F)ncn12 [Example 82, 8-(7-Chloro-1H-indazol-5-yl)-2-cyclopropyl-3-fluoro-7-(trifluoromethyl)imidazo[1,2-c]pyrimidine]
9.8	O=C1Cc2cc(-c3c(C(F)(F)F)ccn4cc(C(F)(F)F)nc34)cc(Cl)c2N1 [Example 86, 5-(2,7-Bis(trifluoromethyl)imidazo[1,2-a]pyridin-8-yl)-7-chloroindolin-2-one]
9.4	Cc1cc(-c2c(C(F)(F)F)ccn3cc(C(F)(F)F)nc23)cc2c1NC(=O)C2 [Example 87, 5-(2,7-Bis(trifluoromethyl)imidazo[1,2-a]pyridin-8-yl)-7-methylindolin-2-one]
10.3	FC(F)(F)c1cn2ccc(C(F)(F)F)c(-c3cc(Cl)c4[nH]ncc4c3)c2n1 [Example 88, 5-(2,7-Bis(trifluoromethyl)imidazo[1,2-a]pyridin-8-yl)-7-chloro-1H-indazole]
10.6	CC(C)c1cn2ccc(C(F)(F)F)c(-c3cc(Cl)c4[nH]ncc4c3)c2n1 [Example 89, 8-(7-Chloro-1H-indazol-5-yl)-2-isopropyl-7-(trifluoromethyl)imidazo[1,2-a]pyridine]
9.6	Cc1cc(-c2c(C(F)(F)F)ccn3cc(C4CC4)nc23)cc2cn[nH]c12 [Example 91, 2-Cyclopropyl-8-(7-methyl-1H-indazol-5-yl)-7-(trifluoromethyl)imidazo[1,2-a]pyridine]
9.4	CCc1cn2ccc(C(F)(F)F)c(-c3cc(C)c4[nH]ncc4c3)c2n1 [Example 92, 2-Ethyl-8-(7-methyl-1H-indazol-5-yl)-7-(trifluoromethyl)imidazo[1,2-a]pyridine]
9.3	Cc1cc(-c2c(C(F)(F)F)ccn3cc(C(F)F)nc23)cc2cn[nH]c12 [Example 93, 2-(Difluoromethyl)-8-(7-methyl-1H-indazol-5-yl)-7-(trifluoromethyl)imidazo[1,2-a]pyridine]
8.1	Cc1cn2ccc(C(F)(F)F)c(-c3cc(C)c4[nH]ncc4c3)c2n1 [Example 94, 2-Methyl-8-(7-methyl-1H-indazol-5-yl)-7-(trifluoromethyl)imidazo[1,2-a]pyridine]

— patent US10155769B2, “Fused azaheterocyclic compounds and their use as AMPA receptor modulators” (Janssen Pharmaceutica NV, priority 2016, dated 2018)
